{"source": "patent US20060189683A1", "about": "“Parenteral formulation of mycophenolic acid, a salt or prodrug thereof” (priority 2003, published 2006)", "assay": "Plasma levels of MPA after intravenous continuous infusion in stable renal transplant patients", "assay_type": "in vivo, human", "conditions": "12 stable renal transplant patients", "procedure": "12 ml of the solution of example 2 is given to 12 stable renal transplant patients as an intravenous continuous infusion into an arm vein over 30 min with a constant infusion rate of 0.4 ml/min.\nBlood samples are taken for 36 h after dosing at the following time points: 0, 10 min, 20 min, 30 min, 45 min, 1.0 h, 1.5 h, 2.0 h, 4.0 h, 8.0 h, 12.0 h, 24.0 h, 36.0 h from the onset of infusion.", "data": [{"smiles": "COc1c(C)c2c(c(O)c1C/C=C(\\C)CCC(=O)O)C(=O)OC2", "note": "[MPA, Mycophenolic acid]", "values": [{"measurement": "interpatient variability for AUC0-t", "setting": "12 ml of solution of example 2, i.v. infusion over 30 min", "result": "less than 25%"}, {"measurement": "half-life", "setting": "human, iv, 12 ml of the solution of example 2, 12 ml of solution of example 2, i.v. infusion over 30 min, read-out: Mean t1/2 (converted)", "result": 9.68, "unit": "h"}, {"measurement": "AUC(0-t)", "setting": "human, iv, 12 ml of the solution of example 2, 12 ml of solution of example 2, i.v. infusion over 30 min, sampling for 36 h, read-out: Mean MPA AUC0-t", "result": 42100, "unit": "ng·h/mL"}]}]}
